Results from ChEMBL document CHEMBL1144770, “Synthesis, SAR and in vitro evaluation of new cyclic Arg-Gly-Asp pseudopentapeptides containing a s-cis peptide bond as integrin alphavbeta3 and alphavbeta5 ligands” (Bioorg Med Chem, 2008).

How the values were obtained:
[1] = molecular target: Integrin alpha-V/beta-5 (Homo sapiens, UniProt P06756+P18084); experiment: Displacement of [125I]Echistatin from human placental integrin alpha-V-beta-5 receptor
[2] = molecular target: Integrin alpha-V/beta-3 (Homo sapiens, UniProt P05106+P06756); experiment: Displacement of [125I]echistatin from human placental integrin alphaVbeta3 receptor
Chain of Integrin alpha-V/beta-3 (P05106 27-788 limits assumed): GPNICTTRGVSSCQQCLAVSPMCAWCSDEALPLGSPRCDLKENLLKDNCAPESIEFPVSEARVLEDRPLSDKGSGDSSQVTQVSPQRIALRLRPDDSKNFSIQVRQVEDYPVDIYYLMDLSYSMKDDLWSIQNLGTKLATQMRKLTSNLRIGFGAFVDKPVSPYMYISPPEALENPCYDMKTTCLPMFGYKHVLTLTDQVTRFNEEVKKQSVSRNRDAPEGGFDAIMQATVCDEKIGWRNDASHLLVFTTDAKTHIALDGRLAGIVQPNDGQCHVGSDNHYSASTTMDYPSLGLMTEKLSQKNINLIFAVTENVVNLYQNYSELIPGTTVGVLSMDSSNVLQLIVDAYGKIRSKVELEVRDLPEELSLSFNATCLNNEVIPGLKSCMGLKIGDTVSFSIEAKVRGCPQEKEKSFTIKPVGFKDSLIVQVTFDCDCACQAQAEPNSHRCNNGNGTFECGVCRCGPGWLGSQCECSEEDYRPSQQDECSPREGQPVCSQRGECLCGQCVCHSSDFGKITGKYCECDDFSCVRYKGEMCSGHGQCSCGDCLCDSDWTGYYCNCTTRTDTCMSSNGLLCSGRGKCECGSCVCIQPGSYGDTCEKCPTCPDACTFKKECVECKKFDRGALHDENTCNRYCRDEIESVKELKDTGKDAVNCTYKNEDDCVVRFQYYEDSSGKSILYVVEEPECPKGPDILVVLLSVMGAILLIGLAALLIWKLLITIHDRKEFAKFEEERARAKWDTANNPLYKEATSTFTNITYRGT
Chain of Integrin alpha-V/beta-3 (P06756 31-889 limits assumed): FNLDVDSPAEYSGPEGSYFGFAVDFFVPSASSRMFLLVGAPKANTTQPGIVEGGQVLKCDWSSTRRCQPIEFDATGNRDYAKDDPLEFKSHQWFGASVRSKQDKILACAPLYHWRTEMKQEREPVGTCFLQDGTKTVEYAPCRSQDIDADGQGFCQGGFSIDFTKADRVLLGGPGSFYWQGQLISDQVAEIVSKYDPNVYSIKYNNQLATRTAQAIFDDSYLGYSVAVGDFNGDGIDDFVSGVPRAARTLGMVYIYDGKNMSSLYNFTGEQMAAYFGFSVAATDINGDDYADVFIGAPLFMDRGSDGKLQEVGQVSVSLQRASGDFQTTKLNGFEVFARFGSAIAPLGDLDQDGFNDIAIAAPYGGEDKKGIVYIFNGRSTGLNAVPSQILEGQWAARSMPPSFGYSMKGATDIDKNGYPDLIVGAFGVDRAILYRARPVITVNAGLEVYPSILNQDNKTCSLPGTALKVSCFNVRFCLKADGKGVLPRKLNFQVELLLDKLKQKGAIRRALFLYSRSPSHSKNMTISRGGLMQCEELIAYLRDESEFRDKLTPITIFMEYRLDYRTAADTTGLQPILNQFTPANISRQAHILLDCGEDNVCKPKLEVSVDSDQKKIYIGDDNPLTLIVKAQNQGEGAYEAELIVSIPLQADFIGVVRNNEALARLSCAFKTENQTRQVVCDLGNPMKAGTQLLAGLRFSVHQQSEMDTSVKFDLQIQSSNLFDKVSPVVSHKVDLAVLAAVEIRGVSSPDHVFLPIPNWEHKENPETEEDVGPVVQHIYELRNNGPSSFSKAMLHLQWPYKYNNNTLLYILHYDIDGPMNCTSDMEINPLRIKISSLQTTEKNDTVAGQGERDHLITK
Chain of Integrin alpha-V/beta-3 (P06756 891-1048 limits assumed): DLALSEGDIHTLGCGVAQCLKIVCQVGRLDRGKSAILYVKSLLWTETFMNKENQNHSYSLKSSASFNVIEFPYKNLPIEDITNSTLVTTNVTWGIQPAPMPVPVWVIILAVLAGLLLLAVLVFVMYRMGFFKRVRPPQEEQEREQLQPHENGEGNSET

Chain of Integrin alpha-V/beta-5 (P06756 31-889 limits assumed): as the sequence (P06756 31-889 limits assumed) above
Chain of Integrin alpha-V/beta-5 (P06756 891-1048 limits assumed): as the sequence (P06756 891-1048 limits assumed) above
Chain of Integrin alpha-V/beta-5 (P18084 24-799 limits assumed): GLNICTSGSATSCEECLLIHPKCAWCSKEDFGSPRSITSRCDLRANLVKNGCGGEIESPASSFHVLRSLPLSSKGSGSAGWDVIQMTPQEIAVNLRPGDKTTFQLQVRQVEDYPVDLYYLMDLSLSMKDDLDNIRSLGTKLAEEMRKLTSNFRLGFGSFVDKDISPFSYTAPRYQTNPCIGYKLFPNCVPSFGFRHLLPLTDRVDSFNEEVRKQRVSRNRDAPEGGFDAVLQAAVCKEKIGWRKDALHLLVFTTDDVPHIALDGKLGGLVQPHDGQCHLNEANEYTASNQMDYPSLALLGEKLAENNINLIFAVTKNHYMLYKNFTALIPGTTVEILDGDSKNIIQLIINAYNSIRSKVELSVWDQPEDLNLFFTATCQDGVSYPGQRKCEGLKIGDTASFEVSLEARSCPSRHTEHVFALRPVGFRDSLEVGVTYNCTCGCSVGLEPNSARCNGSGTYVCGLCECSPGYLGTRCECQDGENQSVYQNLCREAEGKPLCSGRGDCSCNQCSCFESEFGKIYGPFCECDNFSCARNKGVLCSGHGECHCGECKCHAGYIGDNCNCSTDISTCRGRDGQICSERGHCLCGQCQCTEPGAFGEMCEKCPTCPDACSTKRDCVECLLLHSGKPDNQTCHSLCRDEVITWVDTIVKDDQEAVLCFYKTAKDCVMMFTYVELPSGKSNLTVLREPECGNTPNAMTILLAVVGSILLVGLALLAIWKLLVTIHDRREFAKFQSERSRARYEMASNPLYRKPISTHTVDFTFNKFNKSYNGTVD

| SMILES | IC50 [1] | IC50 [2] |
| --- | --- | --- |
| N=C(N)NCCC[C@@H]1NC(=O)[C@@]23CCCN2C(=O)[C@H](C3)NC(=O)[C@H](CC(=O)O)NC(=O)CNC1=O | 0.0143 µM | 0.0344 µM |
| NC(N)=NCCC[C@@H]1NC(=O)[C@]23CCCN2C(=O)[C@@H](C3)NC(=O)[C@H](CC(=O)O)NC(=O)CNC1=O | 7.96 µM | 2.15 µM |
